In the test the target is NAD-dependent malic enzyme (Escherichia coli K12) (UniProt P26616). Briefly: Inhibition of Escherichia coli K-12 recombinant NAD-dependent malic enzyme at 0.2 mM.

We go through eleven compounds from ChEMBL document CHEMBL1681738, “Efficient synthesis of triazole moiety-containing nucleotide analogs and their inhibitory effects on a malic enzyme” (Bioorg Med Chem Lett, 2011).

Active and inactive are the calls of the source. No cut-off for these calls is given here.

Sequence of NAD-dependent malic enzyme (Escherichia coli K12) (P26616 whole entry, looked up): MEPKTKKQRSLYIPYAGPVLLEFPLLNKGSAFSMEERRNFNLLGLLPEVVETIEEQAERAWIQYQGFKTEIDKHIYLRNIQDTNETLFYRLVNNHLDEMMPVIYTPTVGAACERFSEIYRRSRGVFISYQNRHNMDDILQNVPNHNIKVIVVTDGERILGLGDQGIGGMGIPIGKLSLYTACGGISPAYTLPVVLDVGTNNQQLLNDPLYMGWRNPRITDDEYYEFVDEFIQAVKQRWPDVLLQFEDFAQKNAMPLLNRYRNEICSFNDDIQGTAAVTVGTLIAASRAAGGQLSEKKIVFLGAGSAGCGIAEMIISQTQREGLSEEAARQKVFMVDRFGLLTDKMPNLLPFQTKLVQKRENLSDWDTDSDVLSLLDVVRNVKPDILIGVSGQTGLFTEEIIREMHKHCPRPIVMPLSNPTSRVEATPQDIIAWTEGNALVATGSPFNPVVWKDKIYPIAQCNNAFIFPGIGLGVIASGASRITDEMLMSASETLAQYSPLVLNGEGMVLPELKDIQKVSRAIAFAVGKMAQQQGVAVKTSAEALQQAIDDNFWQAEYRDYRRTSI

As for `O=P(O)(O)OC[C@H]1O[C@@H](n2cc(-c3ccccc3)nn2)[C@H](O)[C@@H]1O`, the inhibition entry is “Active”. Turning to `COc1ccc(-c2cn([C@@H]3O[C@H](COP(=O)(O)O)[C@@H](O)[C@H]3O)nn2)cc1`, the inhibition result was “Active”.

`Nc1ccccc1-c1cn([C@@H]2O[C@H](COP(=O)(O)O)[C@@H](O)[C@H]2O)nn1`: the inhibition entry is “Active”.

For `CC(=O)NCc1cn([C@@H]2O[C@H](COP(=O)(O)O)[C@@H](O)[C@H]2O)nn1`, the inhibition result was “Active”. With `O=P(O)(O)OC[C@H]1O[C@@H](n2cc(-c3ccc(F)cc3)nn2)[C@H](O)[C@@H]1O`, the inhibition entry was “Active”.

On to `O=C(NCc1cn([C@@H]2O[C@H](COP(=O)(O)O)[C@@H](O)[C@H]2O)nn1)c1ccccc1`, for which the inhibition result is “Active”. The same measure for `Cc1ccccc1-c1cn([C@@H]2O[C@H](COP(=O)(O)O)[C@@H](O)[C@H]2O)nn1`: “Active”; for `O=P(O)(O)OC[C@H]1O[C@@H](n2cc(-c3ccccc3C(F)(F)F)nn2)[C@H](O)[C@@H]1O`: “Active”.

On to `O=P(O)(O)OC[C@H]1O[C@@H](n2cc(-c3cccc4ccccc34)nn2)[C@H](O)[C@@H]1O`, for which the inhibition result was “Active”. As for `O=P(O)(O)OC[C@H]1O[C@@H](n2cc(-c3ccccc3F)nn2)[C@H](O)[C@@H]1O`, the inhibition entry was “Active”. `O=P(O)(O)OC[C@H]1O[C@@H](n2cc(CCO)nn2)[C@H](O)[C@@H]1O`: the inhibition result is “Active”.
